This is an account of results in US10351576B2, “Fused tricyclic pyrazole derivatives useful for farnesoid X receptors” (NOVARTIS AG, priority 2015, dated 2019).

Each structure is given as a SMILES string.

The target of the test is T1, human Farnesoid X Receptor (FXR) ligand binding domain (GST-FXR LBD) (Homo sapiens, UniProt Q96RI1).
T1 construct: purchased Invitrogen
T1 sequence (Q96RI1 193-472 isoform Q96RI1-2): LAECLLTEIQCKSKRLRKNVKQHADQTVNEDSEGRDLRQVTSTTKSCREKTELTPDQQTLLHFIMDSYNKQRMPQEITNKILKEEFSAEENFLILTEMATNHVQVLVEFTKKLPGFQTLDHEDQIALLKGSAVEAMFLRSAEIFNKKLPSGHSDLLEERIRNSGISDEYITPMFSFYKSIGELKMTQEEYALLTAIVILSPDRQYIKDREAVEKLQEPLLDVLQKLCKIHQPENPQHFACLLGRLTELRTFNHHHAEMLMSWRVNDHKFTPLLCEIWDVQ
Kind of test: Human GST-FXR LBD co-activator interaction assay (FXR HTRF assay). Format: biochemical. To be noted: ligand-dependent interaction of GST-FXR LBD with biotin-labeled SRC-1 peptide, response relative to GW4064, read-out: FXR coactivator interaction assay (HTRF). The source says: Human GST-FXR LBD Co-Activator Interaction Assay
The FXR HTRF assay is a biochemical assay measuring the interaction between FXR and a coactivator protein (SRC1). The ligand-induced interaction with a coactivator protein is a critical step in transcriptional activation by FXR. Thus, this is an assay designed to measure FXR agonist activity of the test compounds.
Recombinant human Farnesoid X Receptor (FXR) ligand binding domain (amino acids 193-472) fused to glutathione S-transferase (GST) purified protein (GST-FXR LBD) was purchased (Invitrogen). The ligand-dependent interaction between GST-FXR LBD and a peptide derived from Steroid Receptor Coactivator-1 (SRC-1) was monitored by Fluorescence Resonance Energy Transfer (FRET). […] Test compounds (in DMSO solution) and detection reagents (anti-GST-Cryptate labeled antibody and Streptavidin-XL665 conjugate; CisBio) were added in assay buffer containing 50 mM KF. Plates are incubated at room temperature in the dark for 2.5 hrs before reading on an Envision (PerkinElmer) at 665 nm and 590 nm. The HTRF assay results were calculated from the 665 nm/590 nm ratio (ratio=(A665 nm/A590 nm)×10^4) and expressed in Delta F %=(Ratiosample−Rationegative)/Rationegative×100.
A negative control (without Streptavidin-XL665) was run with each assay and represented the background fluorescence. A reference FXR agonist, (E)-3-(2-chloro-4-((3-(2,6-dichlorophenyl)-5-isopropylisoxazol-4-yl)methoxy)styryl)benzoic acid (Compound GW4064), was included in each experiment as positive control. The efficacy of each test compound was compared to that of GW4064. At each concentration, the relative activity of the test compound was expressed as Response %=(Rsample−RDMSO)/(Rpositive−RDMSO), where Rsample is the HTRF response (expressed in Delta F %) for the test compound, Rpositive is the maximal response for GW4064 at saturating concentrations, and RDMSO is the response for DMSO control. The EC50 values were calculated using GraphPad Prism (GraphPad Software) using non-linear regression curve fit (log(agonist) vs. response—variable slope (four parameters)).
(In general: TR-FRET usually uses a lanthanide donor and a delayed reading to cut background.)
For the compound `Cn1nc(C(=O)N(CC(=O)NCC2CC2)CC2CCCCC2)c2c1-c1cc(Cl)ccc1OC2` [Compound 74, 2-(1-{8-chloro-1-methyl-1H,4H-chromeno[4,3-c]pyrazol-3-yl}-N-(cyclohexylmethyl)formamido)-N-(cyclopropylmethyl)acetamide], the EC50 stood at 96 nM.

With `CC(C)S(=O)(=O)NCCN(Cc1ccccc1)C(=O)c1nn(C)c2c1COc1ccc(Br)cc1-2` [Compound 64, N-benzyl-8-bromo-1-methyl-N-[2-(propane-2-sulfonamido)ethyl]-1H,4H-chromeno[4,3-c]pyrazole-3-carboxamide], the EC50 came to 695 nM. As for `CNC(=O)CN(Cc1ccccc1)C(=O)c1nn(C)c2c1COc1ccc(Br)cc1-2` [Compound 34, 2-(N-benzyl-1-{8-bromo-1-methyl-1H,4H-chromeno[4,3-c]pyrazol-3-yl}formamido)-N methylacetamide], the EC50 worked out at 193 nM. With `Cn1nc(C(=O)N(CC(=O)NCC2CCCOC2)Cc2ccccc2F)c2c1-c1cc(Cl)ccc1OC2` (stereo not shown) [Compound 32, 2-(1-{8-chloro-1-methyl-1H,4H-chromeno[4,3-c]pyrazol-3-yl}-N-[(2-fluorophenyl)methyl]formamido)-N-(oxan-3-ylmethyl)acetamide] the figure was 376 nM. With `Cn1nc(C(=O)N(CC(=O)NC2CCC(O)CC2)Cc2ccccc2F)c2c1-c1cc(Cl)ccc1OC2` (stereo not shown) [Compound 38, 2-(1-{8-chloro-1-methyl-1H,4H-chromeno[4,3-c]pyrazol-3-yl}-N-[(2-fluorophenyl)methyl]formamido)-N-(4-hydroxycyclohexyl)acetamide] the figure was 717 nM. The same measure for `CC(C)NC(=O)NCCN(Cc1ccccc1F)C(=O)c1nn(C)c2c1COc1ccc(Cl)cc1-2` [Compound 61, 8-chloro-N-[(2-fluorophenyl)methyl]-1-methyl-N-(2-{[(propan-2-yl)carbamoyl]amino}ethyl)-1H,4H-chromeno[4,3-c]pyrazole-3-carboxamide]: 1080 nM; for `Cn1nc(C(=O)N(CC(=O)NC2CCS(=O)(=O)C2)Cc2cccc(F)c2)c2c1-c1cc(Cl)ccc1OC2` (stereo not shown) [Compound 36, 8-chloro-N-(2-((1,1-dioxidotetrahydrothiophen-3-yl)amino)-2-oxoethyl)-N-(3-fluorobenzyl)-1-methyl-1,4-dihydrochromeno[4,3-c]pyrazole-3-carboxamide]: 99 nM.

For `Cn1nc(C(=O)N(CC(=O)NCC2(O)CC2)Cc2ccccc2F)c2c1-c1cc(Cl)ccc1OC2` [Compound 48, 2-(1-{8-chloro-1-methyl-1H,4H-chromeno[4,3-c]pyrazol-3-yl}-N-[(2-fluorophenyl)methyl]formamido)-N-[(1-hydroxycyclopropyl)methyl]acetamide], the EC50 was found to be 75 nM. Take `CNS(=O)(=O)c1ccc(CN(Cc2ccccc2)C(=O)c2nn(C)c3c2COc2ccc(Cl)cc2-3)cc1` [Compound 54, N-benzyl-8-chloro-1-methyl-N-{[4-(methylsulfamoyl)phenyl]methyl}-1H,4H-chromeno[4,3-c]pyrazole-3-carboxamide]: the EC50 was 266 nM. With `Cn1nc(C(=O)N(CC(=O)NCC2CC2)Cc2nccs2)c2c1-c1cc(Cl)ccc1OC2` [Compound 81, 2-(1-{8-chloro-1-methyl-1H,4H-chromeno[4,3-c]pyrazol-3-yl}-N-(1,3-thiazol-2-ylmethyl)formamido)-N-(cyclopropylmethyl)acetamide] the figure was 48 nM; with `CNC(=O)c1ccc(NC(=O)CN(Cc2ccccc2F)C(=O)c2nn(C)c3c2COc2ccc(Cl)cc2-3)cc1` [Compound 37, 4-[2-(1-{8-chloro-1-methyl-1H,4H-chromeno[4,3-c]pyrazol-3-yl}-N-[(2-fluorophenyl)methyl]formamido)acetamido]-N-methylbenzamide], 192 nM. As to `Cn1nc(C(=O)N(CC(=O)NCC2CC2)Cc2ccccc2F)c2c1-c1cc(Cl)ccc1OC2` [Compound 3, 2-(1-{8-chloro-1-methyl-1H,4H-chromeno[4,3-c]pyrazol-3-yl}-N-[(2-fluorophenyl)methyl]formamido)-N-(cyclopropylmethyl)acetamide], the EC50 turned out to be 1 nM. With `Cn1nc(C(=O)N(CC(=O)NCC2CCCO2)Cc2ccccc2F)c2c1-c1cc(Cl)ccc1OC2` (stereo not shown) [Compound 31, 2-(1-{8-chloro-1-methyl-1H,4H-chromeno[4,3-c]pyrazol-3-yl}-N-[(2-fluorophenyl)methyl]formamido)-N-(oxolan-2-ylmethyl)acetamide] the figure was 124 nM. The same measure for `CC(C)C(=O)NCCN(Cc1ccccc1F)C(=O)c1nn(C)c2c1COc1ccc(Cl)cc1-2` [Compound 66, N-[2-(1-{8-chloro-1-methyl-1H,4H-chromeno[4,3-c]pyrazol-3-yl}-N-[(2-fluorophenyl)methyl]formamido)ethyl]-2-methylpropanamide]: 10 nM.

As for `CC(C)C(=O)NCCN(Cc1cccc(F)c1)C(=O)c1nn(C)c2c1COc1ccc(Br)cc1-2` [Compound 62, 8-bromo-N-(3-fluorobenzyl)-N-(2-isobutyramidoethyl)-1-methyl-1,4-dihydrochromeno[4,3-c]pyrazole-3-carboxamide], the EC50 amounted to 18 nM. The same measure for `Cn1nc(C(=O)N(CC(=O)NCC2CC2)Cc2c(F)cccc2F)c2c1-c1cc(Cl)ccc1OC2` [Compound 5, 2-(1-{8-chloro-1-methyl-1H,4H-chromeno[4,3-c]pyrazol-3-yl}-N-[(2,6-difluorophenyl)methyl]formamido)-N-(cyclopropylmethyl)acetamide]: 13 nM. `Cn1nc(C(=O)N(CC(=O)NCCC(F)(F)F)Cc2cccc(F)c2)c2c1-c1cc(Cl)ccc1OC2` [Compound 2, 2-(1-{8-chloro-1-methyl-1H,4H-chromeno[4,3-c]pyrazol-3-yl}-N-[(3-fluorophenyl)methyl]formamido)-N-(3,3,3-trifluoropropyl)acetamide]: the EC50 was found to be 3 nM.

For the compound `Cn1nc(C(=O)N(CCNC(=O)NCC2CC2)Cc2ccccc2F)c2c1-c1cc(Cl)ccc1OC2` [Compound 60, 8-chloro-N-(2-(3-(cyclopropylmethyl)ureido)ethyl)-N-(2-fluorobenzyl)-1-methyl-1,4-dihydrochromeno[4,3-c]pyrazole-3-carboxamide], the EC50 came out at 1810 nM.

For the compound `Cn1nc(C(=O)N(CC(=O)NCCC(F)(F)F)Cc2ccccc2F)c2c1-c1cc(Cl)ccc1OC2` [Compound 4, 2-(1-{8-chloro-1-methyl-1H,4H-chromeno[4,3-c]pyrazol-3-yl}-N-[(2-fluorophenyl)methyl]formamido)-N-(3,3,3-trifluoropropyl)acetamide], the EC50 was 11 nM.
